# Laboratory results taken from the supplement of paper PMC10307832.
# Columns and labels:
# Assay in all cases: relative viability (nuclei count vs DMSO), 5 days (fraction); higher = more cells survive
# [1] = compound: C#Cc1cccc(Nc2ncnc3cc(OCCOC)c(OCCOC)cc23)c1 [Erlotinib] + C[C@]1(O)C[C@@H](c2nc(-c3ccc4ccc(-c5ccccc5)nc4c3)c3c(N)nccn32)C1 [Linsitinib] (partner 1 µM)
# In short: (§1)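 Relative viability equals treated-well nuclei counts divided by vehicle-well nuclei counts. Counts came from 4× images of lung cancer cell lines grown in 1536-well plates for 5 days after pin-tool dosing on the day after seeding. Dosing used one drug alone or a fixed anchor-drug dose plus five library-drug doses (not always all listed) in √10 steps, and values are medians of duplicate plates.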
# [2] = compound: C#Cc1cccc(Nc2ncnc3cc(OCCOC)c(OCCOC)cc23)c1 [Erlotinib] + Cc1nc(NC(=O)N2CCC[C@H]2C(N)=O)sc1-c1ccnc(C(C)(C)C(F)(F)F)c1 [Alpelisib] (partner 2 µM)
# In short: as §1
# [3] = compound: C#Cc1cccc(Nc2ncnc3cc(OCCOC)c(OCCOC)cc23)c1 [Erlotinib] + NC(=O)Nc1cc(-c2cccc(F)c2)sc1C(=O)N[C@H]1CCCNC1 [AZD7762] (partner 0.2 µM)
# In short: as §1
# [4] = compound: O=C(Nc1c[nH]nc1-c1nc2ccc(CN3CCOCC3)cc2[nH]1)NC1CC1 [AT9283] + CC(=O)Nc1cccc(-n2c(=O)n(C3CC3)c(=O)c3c(Nc4ccc(I)cc4F)n(C)c(=O)c(C)c32)c1 [Trametinib] (partner 0.02 µM)
# In short: as §1
# [5] = compound: O=C(Nc1c[nH]nc1-c1nc2ccc(CN3CCOCC3)cc2[nH]1)NC1CC1 [AT9283] + Nc1nc2[nH]cc(CCc3ccc(C(=O)N[C@@H](CCC(=O)O)C(=O)O)cc3)c2c(=O)[nH]1 [Pemetrexed] (partner 0.2 µM)
# In short: as §1
Cell Line,relative viability ([1]; first compound 0.02 µM),relative viability ([1]; first compound 0.2 µM),relative viability ([1]; first compound 2 µM),relative viability ([2]; first compound 0.02 µM),relative viability ([2]; first compound 0.2 µM),relative viability ([2]; first compound 0.6325 µM),relative viability ([2]; first compound 2 µM),relative viability ([3]; first compound 0.02 µM),relative viability ([3]; first compound 0.2 µM),relative viability ([3]; first compound 0.6325 µM),relative viability ([3]; first compound 2 µM),relative viability ([4]; first compound 0.003 µM),relative viability ([4]; first compound 0.03 µM),relative viability ([4]; first compound 0.09487 µM),relative viability ([4]; first compound 0.3 µM),relative viability ([5]; first compound 0.003 µM),relative viability ([5]; first compound 0.03 µM),relative viability ([5]; first compound 0.09487 µM),relative viability ([5]; first compound 0.3 µM),relative viability ([1]; first compound 0.6325 µM)
NCI-H460,0.804,0.647,0.712,0.585,0.415,0.492,0.399,0.613,0.734,0.631,0.629,0.143,0.215,0.0758,0.0307,0.0566,0.0638,0.0674,0.0587,–
NCI-H2405,1.01,–,0.768,0.853,0.772,0.822,0.698,0.749,0.669,0.774,0.652,0.737,0.491,0.296,0.185,0.995,0.977,0.324,0.22,0.994
NCI-H1975,0.954,0.974,–,0.717,0.696,0.535,0.454,0.704,0.682,0.605,0.495,0.323,0.777,0.337,0.234,0.295,0.282,0.27,0.276,0.991
EKVX,0.941,0.395,0.117,0.835,0.403,0.315,0.116,0.686,0.693,0.423,0.219,0.361,0.345,0.32,0.191,0.436,0.352,0.211,0.204,0.235
NCI-H647,1.2,1.15,0.971,0.955,1.18,–,1.02,0.465,0.439,0.508,0.431,0.46,0.47,0.138,0.173,0.168,0.127,0.0669,0.0634,1.19
NCI-H1651,0.967,0.996,0.842,1.02,0.873,1.05,0.944,0.365,0.428,0.406,0.304,0.838,0.875,0.819,0.39,0.48,0.506,0.528,0.378,1.07
NCI-H1993,0.763,–,0.85,0.73,0.644,0.647,0.739,0.732,0.555,0.566,0.535,0.541,0.529,0.445,0.433,0.565,0.514,0.52,0.389,0.728
HCC-827,0.281,0.188,0.166,0.3,0.171,0.172,0.148,0.137,0.153,0.116,0.123,0.492,0.437,0.257,0.204,0.281,0.247,0.236,0.207,0.173
NCI-H1793,0.785,0.397,0.651,0.747,0.549,0.516,0.579,0.683,0.31,0.438,0.258,0.389,0.342,0.292,0.259,0.876,1.07,0.355,0.306,0.767
NCI-H1944,1.17,–,0.642,0.708,0.562,0.595,0.504,0.541,0.419,0.538,0.387,0.408,0.307,0.196,0.206,0.627,0.5,0.232,0.191,0.776
BEN,0.96,0.893,0.891,1.08,1.01,1.26,–,0.554,0.824,0.843,–,0.838,1.17,0.568,0.368,0.622,0.692,0.361,0.365,1.16
H3255,0.971,0.297,0.115,0.674,0.34,0.16,0.13,0.794,0.619,0.516,0.238,0.65,0.614,0.459,0.284,0.544,0.553,0.46,0.238,0.188
NCI-H1437,1.05,0.941,0.526,0.924,0.965,–,0.854,1.01,–,–,0.956,0.547,0.568,0.302,0.14,0.306,0.298,0.264,0.225,0.83
HCC-44,0.663,0.664,0.61,0.821,0.698,0.909,0.707,1.01,1.02,0.984,0.96,0.923,1.07,0.635,0.938,0.629,0.666,0.564,0.694,0.723
CAL-12T,0.804,0.654,0.368,1.16,0.859,0.56,0.371,0.63,0.688,0.529,0.544,0.421,0.399,0.211,0.152,1.36,1.03,0.572,0.31,0.5
NCI-H23,0.643,0.506,0.604,0.763,0.593,0.816,0.634,0.291,0.177,0.198,0.219,0.377,0.291,0.281,0.19,0.675,0.749,0.296,0.238,0.752

Cell Line,relative viability ([1]; first compound 0.02 µM),relative viability ([1]; first compound 0.2 µM),relative viability ([1]; first compound 2 µM),relative viability ([2]; first compound 0.02 µM),relative viability ([2]; first compound 0.2 µM),relative viability ([2]; first compound 0.6325 µM),relative viability ([2]; first compound 2 µM),relative viability ([3]; first compound 0.02 µM),relative viability ([3]; first compound 0.2 µM),relative viability ([3]; first compound 0.6325 µM),relative viability ([3]; first compound 2 µM),relative viability ([4]; first compound 0.003 µM),relative viability ([4]; first compound 0.03 µM),relative viability ([4]; first compound 0.09487 µM),relative viability ([4]; first compound 0.3 µM),relative viability ([5]; first compound 0.003 µM),relative viability ([5]; first compound 0.03 µM),relative viability ([5]; first compound 0.09487 µM),relative viability ([5]; first compound 0.3 µM),relative viability ([1]; first compound 0.6325 µM)
NCI-H1915,1.15,1.17,1.08,1.09,–,1.09,–,0.72,0.675,–,0.659,0.3,0.31,0.225,0.132,0.547,0.431,0.326,0.254,1.1
LU99A,0.616,0.497,0.446,0.644,0.478,0.562,0.333,0.414,0.414,0.295,0.418,0.539,0.327,0.178,0.217,0.162,0.184,0.139,0.112,0.457
LCLC-103H,1.1,1.21,1.01,0.882,0.953,0.994,0.91,0.801,0.875,0.874,0.669,0.661,0.716,0.441,0.4,0.447,0.411,0.343,0.324,1.15
RERF-LC-KJ,0.914,0.837,0.565,0.877,0.666,0.613,0.469,0.846,0.944,0.949,0.608,0.877,0.691,0.412,0.251,0.465,0.36,0.253,0.225,0.736
NCI-H1755,1.05,–,0.976,1.01,0.933,0.937,0.872,0.487,0.438,0.499,0.379,0.8,0.815,0.637,0.557,0.438,0.415,0.361,0.301,0.955
NCI-H596,1.03,0.939,0.789,0.444,0.456,0.492,0.376,1.04,0.954,1.05,0.87,0.76,0.868,0.566,0.635,0.512,0.574,0.529,0.462,1.02
NCI-H1734,0.946,0.849,0.776,0.704,0.61,0.84,0.602,0.579,0.513,0.607,0.507,0.7,0.406,0.267,0.271,0.384,0.404,0.326,0.228,0.966
LC-2-ad,0.889,0.823,0.611,0.909,0.843,0.834,0.686,0.843,0.508,0.514,0.389,0.872,0.707,0.5,0.236,0.258,0.253,0.219,0.164,0.76
NCI-H2085,0.858,0.728,0.76,0.935,0.81,0.673,0.645,0.92,–,0.732,0.454,0.532,0.453,0.395,0.318,0.959,0.9,0.537,0.441,0.664
NCI-H650,0.817,–,0.843,1.22,1.25,1.11,1.06,0.953,1.19,1.23,1.28,0.976,0.906,0.394,0.179,0.939,0.864,0.53,0.153,1.06
EMC-BAC-2,0.795,0.705,0.584,0.762,0.649,0.685,0.542,1.1,1.08,1.26,1.04,0.923,0.58,0.362,0.336,0.466,0.414,0.367,0.266,0.703
NCI-H1395,1.1,1.1,1.06,1.34,1.08,1.08,1.07,0.421,0.367,0.338,0.407,1.07,0.865,0.444,0.341,0.799,0.764,0.322,0.34,1.23
NCI-H322M,0.8,0.727,0.337,0.693,0.745,0.589,0.335,0.464,0.481,0.371,0.395,0.486,0.49,0.407,0.405,0.605,0.438,0.443,0.482,0.512
NCI-H838,1.19,0.93,0.906,1,0.962,1.09,0.855,0.895,0.784,0.987,0.896,0.543,0.275,0.16,0.144,0.227,0.21,0.182,0.153,1.05
LXF-289,0.966,0.921,0.874,1.08,1,0.976,0.913,1.13,1.07,1.05,1.03,0.695,0.686,0.254,0.145,0.827,0.861,0.215,0.128,0.934
201T,0.968,0.933,0.854,0.999,0.968,0.966,–,0.596,0.57,0.619,0.546,0.734,0.753,0.388,0.338,0.292,0.297,0.279,0.306,1.01
